{"source": "patent US20100056525A1", "about": "“5- AND 6- SUBSTITUTED BENZIMIDAZOLE THIOPHENE COMPOUNDS” (priority 2006, published 2010)", "key": {"[1]": {"tested_on": "HCT-116 (human colon) cells", "experiment": "Cell-Titer Glo Cell Growth Inhibition Assay", "format": "cell-based", "details": "HCT-116 cells, 72 h incubation, CellTiter-Glo, read-out: HCT116 IC50", "protocol": "A549-L (human lung), Colo 205 (human colon), HCT-116 (human colon), HT29 (human colon), MX-1 (human breast), SKOV3 (human ovary) and P388 (murine leukemia) cell lines were cultured in RPM11640 containing 10% fetal bovine serum at 37° C. in a 5% CO2 incubator. Cell lines were split into T75 flasks (Falcon #353136) two to three days prior to assay set up at density which yields approximately 70-80% confluency at time of harvest for assay. Cells were harvested using 0.25% trypsin with EDTA (Glibco/Invitrogen #25200-056), Cell counts were performed on cell suspensions using Trypan Blue exclusion staining, cells were then plated in 105 µL of culture media per well at the following densities in 96 well Costar #3916 black flat bottom plates: A549-L 500 cells/well, Colo205 500 cells/well, HCT-116 500 cells/well, HT29 500 cells/well, MX-1 500 cells/well, SKOV3 500 cells/well and P388 250 cells/well. All plates were placed at 5% CO2 37° C. overnight and then test compounds were added the following day. One plate of each cell type was treated with CellTiter-Glo (Promega #G7573) for a day 0 proliferation measurement and read as described below. The test compounds were prepared in clear U bottom polypropylene 96 well plates (Falcon #35-1190 with consecutive two fold dilutions. 9 uL of these dilutions was added into each well of the cell plates. The final concentration of DMSO in all wells was 0.15%. Cells were incubated at 37° C., 5% CO2 for 72 h. Following 72 h of incubation with compounds each plate was developed and read. CellTiter-Glo reagent was added to assay plates using a volume equivalent to the cell culture volume in the wells. Plates were shaken for approximately 2 min and incubated at rt for approximately 15 min and the chemiluminescent signal was read on the Victor V or Envison 2100 reader. […] Concentration of compound that inhibited 50% of cell growth (IC50) was analyzed by 4 or 6 parameter fit of data using XLfit, value of no cell addition was substracted from all samples for background."}, "PLK1 kinase domain": {"target": "T1, PLK1 kinase domain (Homo sapiens, UniProt P53350)", "T1 construct": "made in house; host or cells: baculovirus infected T. ni cells", "T1 sequence (P53350 21-346)": "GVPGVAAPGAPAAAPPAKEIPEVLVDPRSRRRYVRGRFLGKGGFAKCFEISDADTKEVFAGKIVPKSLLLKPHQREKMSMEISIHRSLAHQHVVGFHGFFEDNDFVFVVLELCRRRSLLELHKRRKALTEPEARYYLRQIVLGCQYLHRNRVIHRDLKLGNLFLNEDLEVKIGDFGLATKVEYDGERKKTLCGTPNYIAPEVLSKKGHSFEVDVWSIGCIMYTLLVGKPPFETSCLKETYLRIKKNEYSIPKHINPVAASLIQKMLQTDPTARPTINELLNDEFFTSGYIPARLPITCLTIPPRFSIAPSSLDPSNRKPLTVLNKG", "experiment": "Assay for Inhibition of PLK1 (SPA, 33P-ATP)", "format": "biochemical", "details": "2 nM PLK1 kinase domain, 1 μM ATP, 22° C.; read-out: PLK1 pIC50 (converted)", "protocol": "A. Preparation of 6× N-Terminal His-Tagged PLK Kinase Domain\nAll procedures were performed at 4° C. Cells were lysed in 50 mM HEPES, 200 mM NaCl, 50 mM imidazole, 5% glycerol; pH 7.5. The homogenate was centrifuged at 14K rpm in a SLA-1500 rotor for 1 hr and the supernatant filtered through a 1.2 micron filter. The supernatant was loaded onto a Nickel chelating Sepharose (Amersham Pharmacia) column and washed with lysis buffer. Protein was eluted using 20%, 30% and 100% buffer B steps where buffer B was 50 mM HEPES, 200 mM NaCl, 300 mM imidazole, 5% glycerol; pH 7.5. Fractions containing PLK were determined by SDS-PAGE. Fractions containing PLK were diluted five-fold with 50 mM HEPES, 1 mM DTT, 5% glycerol; pH 7.5, then loaded on an SP Sepharose (Amersham Pharmacia) column. After washing the column with 50 mM HEPES, 1 mM DTT, 5% glycerol; pH 7.5, PLK was step eluted with 50 mM HEPES, 1 mM DTT, 500 mM NaCl; 5% glycerol; pH 7.5. PLK was concentrated using a 10 kDa molecular weight cutoff membrane and then loaded onto a Superdex 200 gel filtration (Amersham Pharmacia) column equilibrated in 25 mM HEPES, 1 mM DTT, 500 mM NaCl, 5% glycerol; pH 7.5. Fractions containing PLK were determined by SDS-PAGE. PLK was pooled, aliquoted and stored at −80° C. Samples were quality controlled using mass spectrometry, N-terminal sequencing and amino acid analysis.\nB. Enzyme Activity +/− Inhibitors was Determined as Follows:\nAll measurements were obtained under conditions where signal production increased linearly with time and enzyme. Test compounds were added to white 384-well assay plates (0.1 μL for 10 μL and some 20 μL assays, 1 μL for some 20 μL assays) at variable known concentrations in 100% DMSO. DMSO (1-5% final, as appropriate) and EDTA (65 mM in reaction) were used as controls.\nReaction Mix (10 or 20 μL) was quickly added to each well immediately following addition of enzyme via automated liquid handlers and incubated 1-1.5 h at 22° C. The 20 μL enzymatic reactions were stopped with 50 μL of stop mix (50 mM EDTA, 4.0 mg/mL Streptavidin SPA beads in Standard Dulbecco's PBS (without Mg^2+ and Ca^2+), 50 μM ATP) per well. The 10 μL reactions were stopped with 10 μL of stop mix (50 mM EDTA, 3.0 mg/mL Streptavidin-coupled SPA Imaging Beads (“LeadSeeker”) in Standard Dulbecco's PBS (without Mg^2+ and Ca^2+), 50 μM ATP) per well. Plates were sealed with clear plastic seals, spun at 500×g for 1 min or settled overnight, and counted in Packard TopCount for 30 seconds/well (regular SPA) or imaged using a Viewlux imager (LeadSeeker SPA). Signal above background (EDTA controls) was converted to percent inhibition relative to that obtained in control (DMSO-only) wells."}}, "data": [{"compound": "C[C@@H](Oc1cc(-n2cnc3cc(-c4ccnc(NCCN(C)C)c4)ccc32)sc1C(N)=O)c1ccccc1C(F)(F)F", "note": "[Example 1, 5-[5-(2-{[2-(Dimethylamino)ethyl]amino}-4-pyridinyl)-1H-benzimidazol-1-yl]-3-({(1R)-1-[2-(trifluoromethyl)phenyl]ethyl}oxy)-2-thiophenecarboxamide]", "values": [{"measurement": "IC50", "setting": "[1]", "result": "< 500", "unit": "nM"}]}, {"compound": "CNCCNc1cc(-c2ccc3c(c2)ncn3-c2cc(O[C@H](C)c3ccccc3C(F)(F)F)c(C(N)=O)s2)ccn1", "note": "[Example 2, 5-[5-(2-{[2-(Methylamino)ethyl]amino}-4-pyridinyl)-1H-benzimidazol-1-yl]-3-({(1R)-1-[2-(trifluoromethyl)phenyl]ethyl}oxy)-2-thiophenecarboxamide]", "values": [{"measurement": "IC50", "setting": "[1]", "result": "< 500", "unit": "nM"}, {"measurement": "IC50", "setting": "PLK1 kinase domain", "result": "< 100", "unit": "nM"}]}, {"compound": "C[C@@H](Oc1cc(-n2cnc3cc(-c4ccnc(NC(=O)CN(C)C)c4)ccc32)sc1C(N)=O)c1ccccc1C(F)(F)F", "note": "[Example 3, 5-(5-{2-[(N,N-dimethylglycyl)amino]-4-pyridinyl}-1H-benzimidazol-1-yl)-3-({(1R)-1-[2-(trifluoromethyl)phenyl]ethyl}oxy)-2-thiophenecarboxamide]", "values": [{"measurement": "IC50", "setting": "[1]", "result": "< 500", "unit": "nM"}, {"measurement": "IC50", "setting": "PLK1 kinase domain", "result": "< 100", "unit": "nM"}]}, {"compound": "C[C@@H](Oc1cc(-n2cnc3cc(-c4ccnc(NC(=O)CN)c4)ccc32)sc1C(N)=O)c1ccccc1C(F)(F)F", "note": "[Example 4, 5-{5-[2-(Glycylamino)-4-pyridinyl]-1H-benzimidazol-1-yl}-3-({(1R)-1-[2-(trifluoromethyl)phenyl]ethyl}oxy)-2-thiophenecarboxamide]", "values": [{"measurement": "IC50", "setting": "[1]", "result": "< 500", "unit": "nM"}, {"measurement": "IC50", "setting": "PLK1 kinase domain", "result": "< 100", "unit": "nM"}]}, {"compound": "C[C@@H](Oc1cc(-n2cnc3cc(-c4ccnc(NCCCN(C)C)c4)ccc32)sc1C(N)=O)c1ccccc1C(F)(F)F", "note": "[Example 5, 5-[5-(2-{[3-(Dimethylamino)propyl]amino}-4-pyridinyl)-1H-benzimidazol-1-yl]-3-([(1R)-1-[2-(trifluoromethyl)phenyl]ethyl]oxy)-2-thiophenecarboxamide]", "values": [{"measurement": "IC50", "setting": "[1]", "result": "< 500", "unit": "nM"}, {"measurement": "IC50", "setting": "PLK1 kinase domain", "result": "< 100", "unit": "nM"}]}, {"compound": "C[C@@H](Oc1cc(-n2cnc3cc(-c4ccnc(NCCN)c4)ccc32)sc1C(N)=O)c1ccccc1C(F)(F)F", "note": "[Example 6, 5-(5-{2-[(2-Aminoethyl)amino]-4-pyridinyl}-1H-benzimidazol-1-yl)-3-([(1R)-1-[2-(trifluoromethyl)phenyl]ethyl]oxy)-2-thiophenecarboxamide]", "values": [{"measurement": "IC50", "setting": "[1]", "result": "< 500", "unit": "nM"}, {"measurement": "IC50", "setting": "PLK1 kinase domain", "result": "< 100", "unit": "nM"}]}, {"compound": "C[C@@H](Oc1cc(-n2cnc3cc(-c4ccnc(N(C)CCN(C)C)c4)ccc32)sc1C(N)=O)c1ccccc1C(F)(F)F", "note": "[Example 7, 5-(5-{2-[[2-(Dimethylamino)ethyl](methyl)amino]-4-pyridinyl}-1H-benzimidazol-1-yl)-3-({(1R)-1-[2-(trifluoromethyl)phenyl]ethyl}oxy)-2-thiophenecarboxamide]", "values": [{"measurement": "IC50", "setting": "[1]", "result": "< 500", "unit": "nM"}, {"measurement": "IC50", "setting": "PLK1 kinase domain", "result": "< 100", "unit": "nM"}]}, {"compound": "C[C@@H](Oc1cc(-n2cnc3cc(-c4ccnc(N(C)CCCN(C)C)c4)ccc32)sc1C(N)=O)c1ccccc1C(F)(F)F", "note": "[Example 8, 5-(5-{2-[[3-(Dimethylamino)propyl](methyl)amino]-4-pyridinyl}-1H-benzimidazol-1-yl)-3-({(1R)-1-[2-(trifluoromethyl)phenyl]ethyl}oxy)-2-thiophenecarboxamide]", "values": [{"measurement": "IC50", "setting": "[1]", "result": "< 500", "unit": "nM"}, {"measurement": "IC50", "setting": "PLK1 kinase domain", "result": "< 100", "unit": "nM"}]}, {"compound": "C[C@@H](Oc1cc(-n2cnc3cc(-c4ccnc(NCCCN5CCN(C)CC5)c4)ccc32)sc1C(N)=O)c1ccccc1C(F)(F)F", "note": "[Example 9, 5-[5-(2-{[3-(4-Methyl-1-piperazinyl)propyl]amino}-4-pyridinyl)-1H-benzimidazol-1-yl]-3-({(1R)-1-[2-(trifluoromethyl)phenyl]ethyl}oxy)-2-thiophenecarboxamide]", "values": [{"measurement": "IC50", "setting": "[1]", "result": "< 500", "unit": "nM"}, {"measurement": "IC50", "setting": "PLK1 kinase domain", "result": "< 100", "unit": "nM"}]}, {"compound": "C[C@@H](Oc1cc(-n2cnc3cc(-c4ccnc(NCCN(C)C)c4)ccc32)sc1C(N)=O)c1ccccc1Cl", "note": "[Example 10, 3-{[(1R)-1-(2-chlorophenyl)ethyl]oxy}-5-[5-(2-{[2-(dimethylamino)ethyl]amino}-4-pyridinyl)-1H-benzimidazol-1-yl]-2-thiophenecarboxamide]", "values": [{"measurement": "IC50", "setting": "[1]", "result": "< 500", "unit": "nM"}, {"measurement": "IC50", "setting": "PLK1 kinase domain", "result": "< 100", "unit": "nM"}]}, {"compound": "C[C@@H](Oc1cc(-n2cnc3cc(-c4ccnc(NCCCN5CCN(C)CC5)c4)ccc32)sc1C(N)=O)c1ccccc1Cl", "note": "[Example 11, 3-{[(1R)-1-(2-chlorophenyl)ethyl]oxy}-5-[5-(2-{[3-(4-methyl-1-piperazinyl)propyl]amino}-4-pyridinyl)-1H-benzimidazol-1-yl]-2-thiophenecarboxamide]", "values": [{"measurement": "IC50", "setting": "[1]", "result": "< 500", "unit": "nM"}, {"measurement": "IC50", "setting": "PLK1 kinase domain", "result": "< 100", "unit": "nM"}]}, {"compound": "C[C@@H](Oc1cc(-n2cnc3cc(-c4ccnc(NCCN5CCOCC5)c4)ccc32)sc1C(N)=O)c1ccccc1Cl", "note": "[Example 12, 3-{[(1R)-1-(2-chlorophenyl)ethyl]oxy}-5-[5-(2-{[2-(4-morpholinyl)ethyl]amino}-4-pyridinyl)-1H-benzimidazol-1-yl]-2-thiophenecarboxamide]", "values": [{"measurement": "IC50", "setting": "[1]", "result": "< 500", "unit": "nM"}, {"measurement": "IC50", "setting": "PLK1 kinase domain", "result": "< 100", "unit": "nM"}]}, {"compound": "C[C@@H](Oc1cc(-n2cnc3cc(-c4ccnc(NC[C@@H](O)CO)c4)ccc32)sc1C(N)=O)c1ccccc1Cl", "note": "[Example 13, 3-{[(1R)-1-(2-chlorophenyl)ethyl]oxy}-5-[5-(2-{[(2R)-2,3-dihydroxypropyl]amino}-4-pyridinyl)-1H-benzimidazol-1-yl]-2-thiophenecarboxamide]", "values": [{"measurement": "IC50", "setting": "[1]", "result": "< 500", "unit": "nM"}, {"measurement": "IC50", "setting": "PLK1 kinase domain", "result": "< 100", "unit": "nM"}]}, {"compound": "C[C@@H](Oc1cc(-n2cnc3cc(-c4ccnc(NCCO)c4)ccc32)sc1C(N)=O)c1ccccc1Cl", "note": "[Example 14, 3-{[(1R)-1-(2-chlorophenyl)ethyl]oxy}-5-(5-{2-[(2-hydroxyethyl)amino]-4-pyridinyl}-1H-benzimidazol-1-yl)-2-thiophenecarboxamide]", "values": [{"measurement": "IC50", "setting": "[1]", "result": "< 500", "unit": "nM"}]}, {"compound": "CC(C)[C@H](N)C(=O)OCCNc1cc(-c2ccc3c(c2)ncn3-c2cc(O[C@H](C)c3ccccc3Cl)c(C(N)=O)s2)ccn1", "note": "[Example 15, 2-({4-[1-(5-(Aminocarbonyl)-4-{[(1R)-1-(2-chlorophenyl)ethyl]oxy}-2-thienyl)-1H-benzimidazol-5-yl]-2-pyridinyl}amino)ethyl L-valinate]", "values": [{"measurement": "IC50", "setting": "[1]", "result": "< 500", "unit": "nM"}, {"measurement": "IC50", "setting": "PLK1 kinase domain", "result": "< 100", "unit": "nM"}]}, {"compound": "C[C@@H](Oc1cc(-n2cnc3cc(-c4ccnc(NCCN(C)C)n4)ccc32)sc1C(N)=O)c1ccccc1C(F)(F)F", "note": "[Example 16, 5-[5-(2-{[2-(Dimethylamino)ethyl]amino}pyrimidin-4-yl)-1H-benzimidazol-1-yl]-3-({(1R)-1-[2-(trifluoromethyl)phenyl]ethyl}oxy)thiophene-2-carboxamide]", "values": [{"measurement": "IC50", "setting": "[1]", "result": "< 500", "unit": "nM"}, {"measurement": "IC50", "setting": "PLK1 kinase domain", "result": "< 100", "unit": "nM"}]}]}
